From patent US20240148648A1, “SUSTAINED RELEASE THERMOSETTING GELS COMPRISING ANESTHETIC DRUGS AND THE METHODS OF MAKING THE SAME” (Pacira Therapeutics, Inc., priority 2021, published 2024)
Converted amounts (≈) assume the structure as drawn.

Assays:
physchem = conditions: for solubility: organic solvent or mixture
Method: In order to determine a suitable solvent, the solubility of all three APIs were determined in dimethyl sulfoxide, ethyl acetate, methylene chloride (DCM), benzyl alcohol, and dimethylacetamide (DMA).

[1] = Rheological analysis of hydrogel formulations (CGT, onset temperature, max G′); format: physicochemical; conditions: compared to the vehicle
Description: PEG 400 was used as a co-solvent to further enhance solubility of the active in aqueous media and to decrease the gelation temperature to be close to but below body temperature. Rheological properties including critical gelation temperature (CGT), onset temperature, and elastic (G′) and viscous (G″) moduli were used in conjunction with visual and IVR experiments to analyze the impact of different formulation component compositions and concentrations on the suitability of the formulation in an extended-release postsurgical pain management indication. […] The onset temperature refers to the temperature at which the viscous moduli begins to increase in rheometry.

[2] = In vitro release (IVR) at 37° C. in surfactant-containing media; format: physicochemical; conditions: cumulative drug release in vitro
Method: The formulations that transitioned only to a viscous liquid (and not an opaque depot) also dissolved with the addition of media in in vitro release (IVR) studies. Such formulations were not further characterized for IVR profile. IVR was conducted by placing an aliquot of formulation into a 50 mL conical tube placed in a 37° C. water bath on a shaker. The formulation was left to gel before surfactant-containing media was slowly added as not to disturb any formed depot.

| SMILES | Solubility in DCM (physchem) | solubility (physchem) [mg/mL] | Impact of drug on gelation properties of the formulation [1] | In vitro release profile (in words) [2] |
| --- | --- | --- | --- | --- |
| CCCCN1CCCCC1C(=O)Nc1c(C)cccc1C (stereo not drawn) [bupivacaine, 1-butyl-N-(2,6-dimethylphenyl)piperidine-2-carboxamide] | solubilized bupivacaine but did not maintain adequate drug solubility when mixed with the polymer system | 200 (≈ 693 mM) | slight impact on the onset temperatures |  |
| CCN(CC)CC(=O)Nc1c(C)cccc1C [lidocaine, 2-(diethylamino)-N-(2,6-dimethylphenyl)acetamide] |  |  |  | faster drug release |
| CCCN1CCCC[C@H]1C(=O)Nc1c(C)cccc1C [ropivacaine, (2S)—N-(2,6-dimethylphenyl)-1-propylpiperidine-2-carboxamide] |  | 80 (≈ 292 mM) | slight decrease on the onset temperatures and max G′ values |  |
